What was measured:
[1] = Stability in mouse liver microsomes; type: in vitro ADME; details: 0.5 mg/mL microsomal protein, 1.00 μM compound, NADPH
Description: (§1) Test Example 3: Test of Stability of Compounds in Liver Microsome
(§2) Test purpose: To determine the stability of some of the compounds of the present disclosure in mouse, dog and human liver microsomes by LC-MS/MS method.
(§3) Test materials: The test drugs were in-house prepared example compounds of the present disclosure; the positive reference compound SNDX-5613 was prepared by the method of Example 253 in patent WO2017214367; the control compound 1 was prepared by the method of Example 64 in WO2017214367; liver microsomes were purchased from CORNING.
(§4) The total volume of each incubation system was approximately 45 μL, and the medium was 100 mM phosphate buffer (PBS, pH 7.4), including liver microsomal protein at a final concentration of 0.5 mg/mL, 1.00 μM compound and 2.00 mM NADPH, and the organic phase content was <1%. Incubation was performed in a 37° C. incubator, and 135 μL of ice-cold acetonitrile was added after 0, 5, 15, 30 and 60 min of reaction to terminate the reaction. The positive control group was incubated with 1.00 μM Ketanserin, 0.5 mg/mL liver microsomal protein and 2.00 mM NADPH in a 37° C. incubator for 0, 5, 15, 30 and 60 min respectively, and then 135 μL of ice-cold acetonitrile was added to terminate the reaction. The 96-well plates were shaken at 600 rpm for 10 min and then centrifuged at 4700 rpm at 4° C. for 15 min. 80 μL of supernatant was mixed with 320 μL of pure water, and the remaining amount of the compound was detected by LC-MS/MS method. The in vitro half life (T½) and intrinsic clearance (CLint) were calculated according to the following formula:
(§5) Intrinsic clearance (Clint)=(0.693/T1/2)×(1/liver microsome concentration)×conversion factor. k is the linear regression slope of the remaining percentage of the ln compound-incubation time.

[2] = Stability in human liver microsomes; type: in vitro ADME; details: Human; 0.5 mg/mL microsomal protein, 1.00 μM compound, NADPH
Description: as §1, §2, §3, §4, §5

[3] = Stability in dog liver microsomes; type: in vitro ADME; details: Dog; 0.5 mg/mL microsomal protein, 1.00 μM compound, NADPH
Description: as §1, §2, §3, §4, §5

[4] = Pharmacokinetics test in mouse; type: in vivo, ICR mice; details: mice, p.o. 10 mg/kg
Summary of the method: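 Fasted male ICR mice dosed with compound in saline with 1.5 eq HCl, 1 mg/kg i.v. or 10 mg/kg oral gavage (6 mice each). Plasma sampled 5 min–24 h, measured by LC-MS/MS; t½, Cmax, AUC, CL and F% by non-compartmental analysis, mean±SD.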

[5] = biological target: hERG potassium ion channel (Homo sapiens (Human), UniProt Q12809); details: reported value of the positive reference compound; cited from earlier work
hERG potassium ion channel, sequence (Q12809 whole entry): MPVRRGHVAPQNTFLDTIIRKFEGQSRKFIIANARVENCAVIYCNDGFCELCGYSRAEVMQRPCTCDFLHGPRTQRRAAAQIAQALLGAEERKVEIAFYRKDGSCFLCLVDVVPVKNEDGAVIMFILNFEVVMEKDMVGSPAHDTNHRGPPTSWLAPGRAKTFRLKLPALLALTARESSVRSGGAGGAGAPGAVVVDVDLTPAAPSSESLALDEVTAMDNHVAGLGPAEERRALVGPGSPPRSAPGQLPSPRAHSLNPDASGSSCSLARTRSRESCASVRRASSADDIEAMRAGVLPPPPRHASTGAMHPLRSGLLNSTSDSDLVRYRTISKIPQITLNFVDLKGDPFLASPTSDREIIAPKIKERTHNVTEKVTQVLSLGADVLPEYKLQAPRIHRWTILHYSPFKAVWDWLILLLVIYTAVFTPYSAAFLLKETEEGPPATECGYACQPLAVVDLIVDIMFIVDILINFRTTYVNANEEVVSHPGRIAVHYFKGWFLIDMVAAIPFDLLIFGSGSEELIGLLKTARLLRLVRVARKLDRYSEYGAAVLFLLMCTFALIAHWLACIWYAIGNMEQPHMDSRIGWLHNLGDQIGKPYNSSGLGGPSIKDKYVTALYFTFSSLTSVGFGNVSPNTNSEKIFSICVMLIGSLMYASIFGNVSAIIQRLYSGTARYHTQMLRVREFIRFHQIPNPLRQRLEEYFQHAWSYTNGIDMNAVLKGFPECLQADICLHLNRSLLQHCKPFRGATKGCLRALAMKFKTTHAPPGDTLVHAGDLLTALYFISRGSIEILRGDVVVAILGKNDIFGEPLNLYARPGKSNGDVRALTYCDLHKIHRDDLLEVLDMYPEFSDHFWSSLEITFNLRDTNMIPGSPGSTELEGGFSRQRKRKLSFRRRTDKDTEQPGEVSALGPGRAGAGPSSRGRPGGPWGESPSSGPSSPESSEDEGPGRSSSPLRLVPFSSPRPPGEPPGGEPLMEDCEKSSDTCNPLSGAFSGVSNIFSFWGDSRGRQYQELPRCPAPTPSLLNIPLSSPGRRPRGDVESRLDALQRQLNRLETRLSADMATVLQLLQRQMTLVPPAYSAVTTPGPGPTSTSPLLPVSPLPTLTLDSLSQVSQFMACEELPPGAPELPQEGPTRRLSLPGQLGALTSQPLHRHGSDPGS

Half life T1/2, mouse liver microsomes [1]: 1.178 h
Half life T1/2, human liver microsomes [2]: 0.1998 h
Half life T1/2, dog liver microsomes [3]: 1.05 h
AUClast [4]: 2483 ng·h/mL
Cmax [4]: 1296 ng/mL
T1/2 [4]: 1.53 h
F, % ([4]; 1 mg/kg for intravenous injection): 88%
SMILES: CCN(C(=O)c1cc(F)ccc1Oc1cncnc1N1CC2(CCN(C[C@H]3CC[C@H](NS(=O)(=O)CC)CC3)CC2)C1)C(C)C [SNDX-5613, reference compound]
IC50 [5]: 5 to 15 µM
